Where “and” joins values, the source holds several entries; their conditions need not be identical. Equal values may be shown once.
Conditions: Liquid

FC(F)OCC(F)(F)F [1,1,1-trifluoro-2-(difluoromethoxy)ethane]
Conditions	Critical pressure [kPa]	Critical temperature [K]	vapor or sublimation pressure [kPa]
–	3457	444.88	–
294.35 K	–	–	72.3
298.14 K	–	–	84.3
300.2 K	–	–	91.5
303.14 K	–	–	102.8
313.12 K	–	–	148.1
323.16 K	–	–	207.8
333.19 K	–	–	284.6
343.23 K	–	–	381.2
353.26 K	–	–	500.9
363.3 K	–	–	646.8
373.34 K	–	–	823
383.37 K	–	–	1031.9
393.42 K	–	–	1282.6
403.45 K	–	–	1575.8
413.47 K	–	–	1919.5
423.52 K	–	–	2334.2
433.56 K	–	–	2798.5
443.56 K	–	–	3339.2

COC(F)(F)C(F)(F)C(F)F [1,1,2,2,3,3-hexafluoro-1-methoxypropane]
Conditions	Critical pressure [kPa]	Critical temperature [K]	vapor or sublimation pressure [kPa]
–	3032	486.98	–
301.9 K	–	–	22.4
312.59 K	–	–	35
322.63 K	–	–	52.9
332.69 K	–	–	77
337.67 K	–	–	92.1
342.69 K	–	–	109.2
352.73 K	–	–	151.1
362.74 K	–	–	204.9
372.78 K	–	–	273.4
382.81 K	–	–	357.4
392.84 K	–	–	458.8
402.87 K	–	–	581.1
412.87 K	–	–	726.2
422.91 K	–	–	898.8
432.94 K	–	–	1100.7
442.97 K	–	–	1333.7
452.99 K	–	–	1605.1
463.02 K	–	–	1921.8
473.04 K	–	–	2276.4
480.12 K	–	–	2562.9

FC(F)C(F)(F)COC(F)(F)C(F)C(F)(F)F (centres undefined) [1,1,1,2,3,3-hexafluoro-3-(2,2,3,3-tetrafluoropropoxy)propane]
Conditions	Critical pressure [kPa]	Critical temperature [K]	vapor or sublimation pressure [kPa]
–	2172	516.21	–
285.28 K	–	–	6.2
302.65 K	–	–	12.5
312.63 K	–	–	19.8
322.62 K	–	–	30.9
332.69 K	–	–	45.8
342.69 K	–	–	62.9
352.75 K	–	–	88.5
362.72 K	–	–	129.9
372.8 K	–	–	175.3
382.83 K	–	–	229
392.86 K	–	–	294.8
402.89 K	–	–	374.7
412.92 K	–	–	469.1
422.94 K	–	–	581.8
432.97 K	–	–	715.5
443 K	–	–	870.9
453.03 K	–	–	1049.5
463.06 K	–	–	1252.9
473.08 K	–	–	1484.4
481.14 K	–	–	1745.4
490.97 K	–	–	2048
499.97 K	–	–	2137.8
500.79 K	–	–	2176.3

CC(F)(F)Cl [1-chloro-1,1-difluoroethane]
Conditions	Critical density [kg/m3]	Critical pressure [kPa]	Critical temperature [K]
–	442	–	–
Direct measurement	–	4054	–
Visual observation in an unstirred cell	–	–	410.3

COCC(F)(F)C(F)F [1,1,2,2-tetrafluoro-3-methoxypropane]
Conditions	Critical density [kg/m3]	Critical pressure [kPa]	Critical temperature [K]	vapor or sublimation pressure [kPa]
–	453	–	–	–
342.68 K	–	–	–	84.8
347.65 K	–	–	–	101.2
352.72 K	–	–	–	120.5
362.75 K	–	–	–	166.1
372.76 K	–	–	–	222.7
382.79 K	–	–	–	293.4
392.8 K	–	–	–	379.9
402.8 K	–	–	–	484.3
412.88 K	–	–	–	610.7
422.91 K	–	–	–	758.8
432.93 K	–	–	–	934.8
442.97 K	–	–	–	1138.1
452.99 K	–	–	–	1373.5
463.01 K	–	–	–	1642.8
473.02 K	–	–	–	1952
480.13 K	–	–	–	2197.3
489.95 K	–	–	–	2573.3
499.77 K	–	–	–	3005.9
505.06 K	–	–	–	3262.8
505.35 K	–	–	–	3278.9
Direct measurement	–	3279	–	–
Visual observation in an unstirred cell	–	–	505.35	–

FC(C(F)(F)F)C(F)(F)OCC(F)(F)F (centres undefined) [1,1,1,2,3,3-hexafluoro-3-(2,2,2-trifluoroethoxy)propane]
Conditions	Critical density [kg/m3]	Critical pressure [kPa]	Critical temperature [K]	vapor or sublimation pressure [kPa]
–	563	–	–	–
302.76 K	–	–	–	18.7
312.63 K	–	–	–	29.6
322.65 K	–	–	–	44.6
332.64 K	–	–	–	65.7
342.72 K	–	–	–	93.9
352.73 K	–	–	–	131
362.77 K	–	–	–	179.1
372.79 K	–	–	–	239.7
382.83 K	–	–	–	315.9
392.84 K	–	–	–	408
402.89 K	–	–	–	521.2
412.92 K	–	–	–	657.3
422.94 K	–	–	–	814.3
432.97 K	–	–	–	1004.4
443 K	–	–	–	1225.6
453.02 K	–	–	–	1480.3
463.04 K	–	–	–	1778.5
473.06 K	–	–	–	2125
475.79 K	–	–	–	2236.1
Direct measurement	–	2233	–	–
Visual observation in an unstirred cell	–	–	475.74	–

COCC(F)(F)C(F)(F)C(F)(F)F [1,1,1,2,2,3,3-heptafluoro-4-methoxybutane]
Conditions	Critical density [kg/m3]	Critical pressure [kPa]	Critical temperature [K]	vapor or sublimation pressure [kPa]
–	497	–	–	–
291.65 K	–	–	–	12.1
302.31 K	–	–	–	20.4
312.43 K	–	–	–	32.3
322.64 K	–	–	–	48.9
332.66 K	–	–	–	71.5
337.71 K	–	–	–	85.4
342.7 K	–	–	–	101.2
347.73 K	–	–	–	119.2
362.74 K	–	–	–	189.2
372.75 K	–	–	–	250.2
382.82 K	–	–	–	326.6
392.85 K	–	–	–	419.6
402.88 K	–	–	–	531.3
412.9 K	–	–	–	664.3
422.92 K	–	–	–	820.3
432.95 K	–	–	–	1004.6
442.98 K	–	–	–	1216.4
453 K	–	–	–	1462.9
463.01 K	–	–	–	1746.1
473.05 K	–	–	–	2071.1
478.44 K	–	–	–	2266.3
481.5 K	–	–	–	2382.5
481.66 K	–	–	–	2389.1
Direct measurement	–	2381	–	–
Visual observation in an unstirred cell	–	–	481.54	–

FC(F)(F)COCC(F)(F)F [1,1,1-trifluoro-2-(2,2,2-trifluoroethoxy)ethane]
Conditions	Critical density [kg/m3]	Critical pressure [kPa]	Critical temperature [K]	vapor or sublimation pressure
–	500	–	–	–
293.4 K	–	–	–	18 kPa
293.59 K	–	–	–	18.2 kPa
303.09 K	–	–	–	27.9 kPa
303.12 K	–	–	–	28 kPa
313.12 K	–	–	–	42.6 kPa
313.14 K	–	–	–	42.8 kPa
323.15 K	–	–	–	63.3 kPa
323.17 K	–	–	–	63.4 kPa
333.2 K	–	–	–	91.3 kPa and 91.4 kPa
338.22 K	–	–	–	109 kPa
343.24 K	–	–	–	129.2 kPa
353.27 K	–	–	–	178.3 kPa
353.28 K	–	–	–	178.3 kPa
363.31 K	–	–	–	241.1 kPa
373.34 K	–	–	–	320 kPa
373.35 K	–	–	–	320.1 kPa
383.38 K	–	–	–	417.4 kPa and 417.3 kPa
393.43 K	–	–	–	536.2 kPa and 536.3 kPa
Direct measurement	–	2783	–	–
Visual observation in an unstirred cell	–	–	476.31	–

FC(C(F)(F)F)C(F)(F)OCC(F)(F)C(F)(F)F (centres undefined)
Conditions	Critical density [kg/m3]	Critical pressure [kPa]	Critical temperature [K]	vapor or sublimation pressure [kPa]
–	567	–	–	–
312.48 K	–	–	–	14.7
342.64 K	–	–	–	54.8
352.72 K	–	–	–	79.1
362.78 K	–	–	–	113.1
372.77 K	–	–	–	157
382.71 K	–	–	–	211.7
402.89 K	–	–	–	360.6
412.9 K	–	–	–	460.7
422.79 K	–	–	–	575.4
432.96 K	–	–	–	717.1
443 K	–	–	–	881.9
453 K	–	–	–	1067.4
461.47 K	–	–	–	1255.3
473.07 K	–	–	–	1548.7
483.09 K	–	–	–	1842.8
486.67 K	–	–	–	1954.3
Direct measurement	–	1950	–	–
Visual observation in an unstirred cell	–	–	486.48	–

COCC(F)(F)C(F)(F)C(F)(F)C(F)F [1,1,2,2,3,3,4,4-octafluoro-5-methoxypentane]
Conditions	Critical pressure [kPa]	Critical temperature [K]	vapor or sublimation pressure [kPa]
–	2392	546.1	–
301.49 K	–	–	2.3
312.42 K	–	–	4
322.54 K	–	–	6.9
332.62 K	–	–	11.2
342.67 K	–	–	18.1
352.72 K	–	–	29.1
362.75 K	–	–	48
372.79 K	–	–	74.3
382.81 K	–	–	106.8
392.83 K	–	–	147.1
402.86 K	–	–	193.8
412.89 K	–	–	250.4
422.92 K	–	–	320.1
432.94 K	–	–	395.7
442.97 K	–	–	482.8
452.99 K	–	–	585.8
463 K	–	–	710.7
473.04 K	–	–	849.5
483.07 K	–	–	1006.9
492.89 K	–	–	1184.9
502.72 K	–	–	1385.9
512.54 K	–	–	1615.9
522.34 K	–	–	1873.5
532.17 K	–	–	2168.7
541.94 K	–	–	2471.9
545.63 K	–	–	2602.5

FC(F)C(F)(F)OCC(F)(F)C(F)(F)F [1,1,1,2,2-pentafluoro-3-(1,1,2,2-tetrafluoroethoxy)propane]
Conditions	Critical density [kg/m3]	Critical pressure [kPa]	Critical temperature [K]	vapor or sublimation pressure [kPa]
–	550	–	–	–
299.64 K	–	–	–	17.7
332.69 K	–	–	–	69.8
337.7 K	–	–	–	84
342.7 K	–	–	–	100.3
347.73 K	–	–	–	119.2
352.74 K	–	–	–	140.6
362.76 K	–	–	–	192.2
372.78 K	–	–	–	256.8
382.81 K	–	–	–	337.6
392.84 K	–	–	–	436.3
402.86 K	–	–	–	555.1
412.89 K	–	–	–	700
422.91 K	–	–	–	868.6
432.95 K	–	–	–	1066.1
442.97 K	–	–	–	1298
447.99 K	–	–	–	1427.4
453 K	–	–	–	1567.3
458.02 K	–	–	–	1718.4
464.03 K	–	–	–	1914.1
468.05 K	–	–	–	2055.2
473.08 K	–	–	–	2246.6
Direct measurement	–	2244	–	–
Visual observation in an unstirred cell	–	–	473.01	–

FC(F)OCC(F)(F)C(F)(F)F [difluoromethyl 2,2,3,3,3-pentafluoropropyl ether]
Conditions	Critical density [kg/m3]	Critical pressure [kPa]	Critical temperature [K]	vapor or sublimation pressure [kPa]
–	576	–	–	–
298.42 K	–	–	–	44.2
322.49 K	–	–	–	111.5
332.63 K	–	–	–	157.2
342.7 K	–	–	–	216.6
352.65 K	–	–	–	290.7
362.73 K	–	–	–	384.1
372.78 K	–	–	–	498.1
382.79 K	–	–	–	637.5
392.82 K	–	–	–	807.7
402.86 K	–	–	–	1006.3
412.9 K	–	–	–	1244.5
422.93 K	–	–	–	1524.9
432.96 K	–	–	–	1858.4
442.98 K	–	–	–	2203.3
454.99 K	–	–	–	2769
455.27 K	–	–	–	2796.4
Direct measurement	–	2773	–	–
Visual observation in an unstirred cell	–	–	455.1	–

FC(F)COC(F)(F)C(F)F [1,1,2,2-tetrafluoro-2-(2,2-difluoroethoxy)ethane]
Conditions	Critical density [kg/m3]	Critical pressure [kPa]	Critical temperature [K]	vapor or sublimation pressure [kPa]
–	520	–	–	–
300.91 K	–	–	–	12.8
322.65 K	–	–	–	33.9
332.67 K	–	–	–	50.8
342.69 K	–	–	–	75
352.73 K	–	–	–	106.1
362.73 K	–	–	–	147.5
372.78 K	–	–	–	202.5
382.8 K	–	–	–	268.1
392.83 K	–	–	–	351.4
402.87 K	–	–	–	453.5
412.89 K	–	–	–	576.7
422.92 K	–	–	–	723.9
432.95 K	–	–	–	898.2
442.97 K	–	–	–	1102.4
453 K	–	–	–	1341.6
463.02 K	–	–	–	1615.4
473.05 K	–	–	–	1931
482.09 K	–	–	–	2256.7
491.9 K	–	–	–	2658.1
497.81 K	–	–	–	2932.7
501.3 K	–	–	–	3101.6
Direct measurement	–	3090	–	–
Visual observation in an unstirred cell	–	–	501.08	–

FCC(F)(F)F [1,1,1,2-tetrafluoroethane]
Conditions	Critical density [kg/m3]	Critical pressure [kPa]	Critical temperature [K]
–	508	–	–
Direct measurement	–	4051	–
Visual observation in an unstirred cell	–	–	374.13
